This is an account of results in US20110212885A1, “OPHTHALMIC AND CONTACT LENS SOLUTIONS CONTAINING PEPTIDES AS PRESERVATIVE” (priority 2003, published 2011).

Like-named read-outs stand apart in the source and are kept apart here. Non-standard residues stand in square brackets, D forms with d. Residues, ends and D or L forms follow the SMILES beside them. No end group written: not given here.

Common to all, as to format: cell-based
For test [1], the system named is Pseudomonas aeruginosa (ATCC 9027). Conditions: for lowest concentration giving complete kill of P. aeruginosa: Experiment 3, tested 100 to 1 ug/mL in water; for average cfu/mL: P. aeruginosa; for biocidal effect on P. aeruginosa (in words): 100 ug/mL in water. The protocol:
(§1) Peptides were tested using a conventional Disinfection Efficacy antimicrobial assay (ISO 14729), commonly used in evaluating biocidal efficacy of preservatives for use in contact lens care solutions. Briefly, a known concentration of organisms are inoculated into the test solution, and allowed to incubate for a given amount of time, after which they are neutralized to inactivate the preservative. Samples are serially diluted and plated in duplicate onto petri plates onto which growth medium is poured. The plates are incubated at 35° C. (bacteria) or 25° C. (yeast and molds) for 48 hours. The average number of colony forming units is determined on countable plates (the dilution at which between 30 to 300 cfu/plate are observed, except when colonies are observed only on the −1 dilution plates). The log reduction resulting from exposure to the test solution is calculated based on the growth of positive controls plated simultaneously. Recovery controls, to confirm that the test solution is neutralized, and viability controls are also plated.
(§2) Method: The Disinfection Efficacy test was used with the following organisms: Staphylococcus aureus (ATCC 6538), Pseudomonas aeruginosa (ATCC 9027), Serratia marcesens (ATCC 13880), Candida albicans (ATCC 10231), and Fusarium solani (ATCC 36031). The peptides were diluted in water at a concentration of 100 ug/mL (adjusted for purity). Organism cultures were prepared to result in an inoculum concentration between 10^7 and 10^8 cfu/mL. The test solutions were inoculated for a 1 hour and a 3 hour exposure period, neutralized with DEB with 0.1% SLS added, and plated in duplicate.
(§3) Method: The Disinfection Efficacy test was used as in experiment 2 using Staphylococcus aureus and Pseudomonas aeruginosa. The peptides were diluted in water at concentrations of 100, 33.3, 10, 3.33, and 1 ug/mL. The test solutions were inoculated for 1 hour, neutralized, and plated in duplicate.

The test system of test [2] is Staphylococcus aureus (ATCC 6538). Conditions: for concentration giving complete kill of S. aureus: tested 100 to 1 ug/mL in water; for average cfu/mL: S. aureus; for biocidal effect on S. aureus (in words): 100 ug/mL in water. The protocol:
as §1, §2, §3

For test [3], the system named is Candida albicans (ATCC 10231). Conditions: 1 hour exposure; for average cfu/mL: C. albicans, peptide 100 ug/mL in water; for biocidal effect on C. albicans (in words): 100 ug/mL in water. As for the experimental part: as §1
Method: Candida albicans (ATCC 10231) stock cultures were incubated and prepared to result in cell suspensions containing between 10^7 and 10^8 cfu/mL. The Disinfection Efficacy test, as described above, was used, with the following modification: Since the standard Dey-Engley broth used to neutralize preservatives was not necessarily expected to neutralize the peptide, 0.1% sodium laurel sulfate (SLS) was added to the neutralization solution. Controls confirmed that this was effective in neutralizing the peptide test solution.
as §2

Test [4] has as its system Fusarium solani (ATCC 36031). Particulars: 1 hour exposure; for average cfu/mL: F. solani, peptide 100 ug/mL in water; for biocidal effect on F. solani (in words): 100 ug/mL in water. As for the experimental part:
as §1, §2

Test [5] concerns Serratia marcesens (ATCC 13880). Conditions: 1 hour exposure; for average cfu/mL: S. marcescens, peptide 100 ug/mL in water; for biocidal effect on S. marcescens (in words): 100 ug/mL in water. The protocol:
as §1, §2

Setting [6] is: T = 1 hr, Conc. 1 μg/mL in water.
Where [7] appears, read: T = 1 hr, Conc. 3.33 μg/mL in water.
[8] abbreviates: T = 1 hr, Conc. 10 μg/mL in water.
The mark [9] stands for this setting: T = 1 hr, Conc. 33 μg/mL in water.
Setting [10] is: T = 1 hr, Conc. 100 μg/mL in water.
The mark [11] stands for this setting: peptide 100 ug/mL in water, 1 hour exposure.

FAKKFAKKFKKFAKKFAKFAFAF [D2A21]: the “lowest concentration giving complete kill of P. aeruginosa” value in test [1] (1 hour exposure) worked out at 1 µg/mL. Besides, the “average cfu/mL” value in test [1] (setting [6]), in test [1] (setting [7]), in test [1] (setting [8]), in test [1] (setting [9]), in test [1] (setting [10]) and in test [1] (setting [11]) was 0.00E+00 cfu/mL throughout. In addition, the “average cfu/mL” value in test [2] (setting [6]) was determined as 1.12E+03 cfu/mL; in test [2] (setting [7]), 0.00E+00 cfu/mL; in test [2] (setting [8]), 1.00E+01 cfu/mL; in test [2] (setting [9]), 0.00E+00 cfu/mL; in test [2] (setting [10]), 0.00E+00 cfu/mL; in test [2] (setting [11]), 0.00E+00 cfu/mL. Further, the “average cfu/mL” value in test [3], in test [4] and in test [5] was 0.00E+00 cfu/mL in each case. Besides, the “concentration giving complete kill of S. aureus” value in test [2] (Experiment 3, 1 hour exposure) was determined as 3.33 µg/mL.
Take FKLRAKIKVRLRAKIKL [D4E1]: the “lowest concentration giving complete kill of P. aeruginosa” value in test [1] (1 hour exposure) amounted to 1 µg/mL. Besides, the “average cfu/mL” value came out at 1.00E+01 cfu/mL in test [1] (setting [6]); 0.00E+00 cfu/mL in test [1] (setting [7]); 0.00E+00 cfu/mL in test [1] (setting [8]); 5.00E+00 cfu/mL in test [1] (setting [9]); 0.00E+00 cfu/mL in test [1] (setting [10]); 0.00E+00 cfu/mL in test [1] (setting [11]). The “average cfu/mL” value in test [2] (setting [6]) is 5.00E+00 cfu/mL; in test [2] (setting [7]), 0.00E+00 cfu/mL; in test [2] (setting [8]), 0.00E+00 cfu/mL; in test [2] (setting [9]), 0.00E+00 cfu/mL; in test [2] (setting [10]), 0.00E+00 cfu/mL; in test [2] (setting [11]), 0.00E+00 cfu/mL. For the same molecule, the “average cfu/mL” value in test [3], in test [4] and in test [5] was 0.00E+00 cfu/mL throughout. Besides, in test [2] (Experiment 3, 1 hour exposure), the “concentration giving complete kill of S. aureus” value is 1 µg/mL.
AKRHHGYKRKFH-NH2 [P-113]: the “biocidal effect on P. aeruginosa (in words)” value in test [1] (1 hour exposure) was “effective”. In addition, in test [1] (1 hour exposure), the “lowest concentration giving complete kill of P. aeruginosa” value amounted to 3.33 µg/mL. Moreover, the “average cfu/mL” value is 3.90E+02 cfu/mL in test [1] (setting [6]); 5.00E+00 cfu/mL in test [1] (setting [7]); 1.50E+01 cfu/mL in test [1] (setting [8]); 0.00E+00 cfu/mL in test [1] (setting [9]); 0.00E+00 cfu/mL in test [1] (setting [10]); 6.00E+01 cfu/mL in test [1] (setting [11]). Besides, the “average cfu/mL” value in test [2] (setting [6]) amounted to 5.95E+04 cfu/mL; in test [2] (setting [7]), 1.44E+05 cfu/mL; in test [2] (setting [8]), 2.02E+05 cfu/mL; in test [2] (setting [9]) it was 3.40E+05 cfu/mL; in test [2] (setting [10]), 3.80E+05 cfu/mL; in test [2] (setting [11]) it was 6.10E+05 cfu/mL. For the same molecule, the “average cfu/mL” value in test [3] stood at 5.51E+03 cfu/mL; in test [4], 6.00E+03 cfu/mL; in test [5], 4.00E+05 cfu/mL. In addition, the “biocidal effect on S. aureus (in words)” value in test [2] (1 hour exposure) is reported as “no effect”. In test [2] (Experiment 3, 1 hour exposure, 100 to 1 ug/mL in water), the “effectiveness against S. aureus (in words)” value is listed as “not effective”. Moreover, the “biocidal effect on C. albicans (in words)” value in test [3] is “effective”. For the same molecule, the “biocidal effect on F. solani (in words)” value in test [4] is “effective”. The “biocidal effect on S. marcescens (in words)” value in test [5] was “no effect”.
On to `C[C@@H](N)C(=O)N[C@H](CCCCN)C(=O)N[C@H](CCCNC(=N)N)C(=O)N[C@H](Cc1c[nH]cn1)C(=O)N[C@H](Cc1c[nH]cn1)C(=O)NCC(=O)N[C@H](Cc1ccc(O)cc1)C(=O)N[C@H](CCCCN)C(=O)N[C@H](CCCNC(=N)N)C(=O)N[C@H](CCCCN)C(=O)N[C@H](Cc1ccccc1)C(=O)N[C@H](Cc1c[nH]cn1)C(N)=O` [P113D] (H-[dA][dK][dR][dH][dH]G[dY][dK][dR][dK][dF][dH]-NH2; N-terminus and C-terminus assumed), for which the “biocidal effect on P. aeruginosa (in words)” value in test [1] (1 hour exposure) is “effective”. Moreover, the “average cfu/mL” value in test [1] (setting [11]) stood at 2.00E+01 cfu/mL; in test [2] (setting [11]), 4.70E+05 cfu/mL; in test [3], 3.30E+03 cfu/mL; in test [4] it was 6.40E+03 cfu/mL; in test [5], 2.80E+05 cfu/mL. Besides, the “biocidal effect on S. aureus (in words)” value in test [2] (1 hour exposure) is “no effect”. Also, the “biocidal effect on C. albicans (in words)” value in test [3] is “effective”. Moreover, the “biocidal effect on F. solani (in words)” value in test [4] is “effective”. In addition, the “biocidal effect on S. marcescens (in words)” value in test [5] is “no effect”.
